Data: article PMC9332833 (Cancers, 2022)
“Also recorded” adds a separate entry of the source.

Legend:
[1] = Pharmacokinetics in Balb/c nude mice; format: in vivo; conditions: for MRT last / half-life / AUC(0-inf) / C0: Balb/c nude; for AUC(0-inf): extrapolated to infinity; for C0: extrapolated to t = 0
Protocol: Eight-week-old female Balb/c nude mice were randomly divided into test groups and injected with BK124.1 either intraperitoneally, at 20 mg/kg or 40 mg/kg concentrations, or intravenously at 20 mg/kg concentration. The compound blood concentration was measured 15 min, 6, 12, and 24 h post-injection. For each time point, 4 mice were sacrificed. BK124.1 concentration in the bloodstream was analyzed using mass spectrometry. Toxicology was assessed by examining physiological and morphological changes at the injection site, the appearance of internal organs (liver, heart, kidneys, and spleen), blood tests, body mass, and animal behavior.

[2] = Blood morphology in K562 xenograft mice; conditions: for GRA / MON / HGB / WBC / MPV / RBC / RDW / MCH / MCHC / HCT / MCV / LYMP: N=4; for GRA / MON / LYMP: standard range 0.0-99.0; for HGB: standard range 1.1-18; for WBC: standard range 3.0-15; for MPV: standard range 4.6-7.3; for RBC: standard range 5.0-12; for RDW: standard range 11.5-14.5; for MCH: standard range 12-24.5; for MCHC: standard range 21.6-42; for HCT: standard range 36-52; for MCV: standard range 44-69
Protocol: Eight-week-old female NOD.Cg-Prkdcscid Il2rgtm1Wjl/SzJ NSG mice (Jackson Laboratory, Bar Harbor, ME, USA) were injected subcutaneously into the dorsal fold with 1 × 10^6 K562 cells of the human chronic myeloid leukemia (CML) line in a final volume of 100 µL (0.5% of the mouse weight). On day 3 after cell administration, mice were randomly assigned to each group, and on days 4–17 of the experiment, the selected tested compounds and control solutions were administered intraperitoneally or orally. During the experiment, subcutaneous tumors and body weight were measured daily. Tumor growth during the experiment was measured with an electronic display caliper. The theoretical tumor volume [mm], was calculated according to the formula (a^2 × b) * 0.5, where a is the shorter tumor axis [mm] and b is the longer tumor axis [mm]. On day 26, the experiment was terminated: blood was collected and analyzed for cellular morphology and standard biochemistry metabolites. Tumors were weighed.
Control and treated mice were grouped according to the tested compounds and the scheme of their administrations (doses, administration frequencies, routes of administration) in the CML xenogeneic model obtained by subcutaneous transplantation of 1 × 10^6 cells of the human CML blast line K562 into mice NOD.Cg-Prkdcscid Il2rgtm1Wjl/SzJ (NSG).
Hydroxyurea K562 500 mg/kg, IP Aqua pro 1 x daily 8

K562 cells = assay: K562 in BK124.1 long term experiment (6 months), MDR1 induction; format: cell-based, human; conditions: 1 µM or 2 µM for at least 6 months
[3] = system: CD34+ cells from CML patients; assay: MTT viability assay, CML CD34+ cells; format: cell-based; conditions: Homo sapiens, 48 h
Protocol: Blood samples were taken (venipuncture, EDTA-K2 Vacutainer tubes, Becton Dickinson, Franklin Lakes, NJ, USA) from 8 chronic phase CML patients (CML1–CML8; 4 men and 4 women, aged 39–79) diagnosed at the Department of Hematology, University Clinical Center, Medical University of Warsaw, following their written consent. The diagnosis was carried out by qualified clinical staff based on an interview, blood parameters and molecular tests detecting BCR-ABL1 (transcript b3a2). Peripheral blood mononuclear cells were immediately isolated from the fresh blood sample using standard protocol (Supplementary Methods). […]
Cells were seeded in 96-well plates; after 24 h, medium with the appropriate drug concentration was added to each well. […] Absorbance was read using an iMark Microplate absorbance reader (Bio-Rad, Hercules, CA, USA). Results were calculated relative to cells treated with DMSO only.
[…] Next, we isolated CD34+ cells (EasySep™ Human CD34 Positive Selection Kit II, StemCell Technologies, Vancouver, Canada), counted them and assessed viability with Muse Cell Analyzer (Merck Millipore, Burlington, MA, USA). […] The purity of the live CD34+ fraction was assessed by flow cytometry with anti-human CD34-APC antibody, compared with an appropriate isotype control (Biolegend, San Diego, CA, USA), and propidium iodide (Sigma-Aldrich, St. Louis, MO, USA). […]

[4] = IP 20 mg/kg, whole blood, female mouse
[5] = IP 40 mg/kg, whole blood, female mouse
[6] = IV 20 mg/kg, whole blood, female mouse
[7] = 20 mg/kg IP daily 14 days, mean ± SD
[8] = 30 mg/kg IP daily 14 days, mean ± SD
[9] = 30 mg/kg IP daily 14 days, mean

`CCC12C(=O)C(CC)(C(c3ccccc3)=C1c1ccccc1)C1C(=O)N(CC(O)CNC(C)C)C(=O)C12` (stereo not drawn) [BK124.1, 4-[2-hydroxy-3-(propan-2-ylamino)propyl]-1,7-diethyl-8,9-diphenyl-4-azatricyclo [5.2.1.02,6]dec-8-ene-3,5,10-trione] gave an MRT last [1, 4] of 5.09 h, a half-life [1, 4] of 3.53 h and an AUC(0-inf) [1, 4] of 9580 ng·h/mL. The C0 [1, 4] was 1740 ng/mL, the MRT last [1, 5] was 7.48 h and the half-life [1, 5] was 5.18 h. For the same compound, the AUC(0-inf) [1, 5] was 23500 ng·h/mL, the C0 [1, 5] was 2760 ng/mL and the MRT last [1, 6] was 4.78 h. It also gave a half-life [1, 6] of 3.31 h, an AUC(0-inf) [1, 6] of 6620 ng·h/mL and a C0 [1, 6] of 1020 ng/mL. The “AUClast, dose normalized” value [1, 4] was 3.24 kg·ng·h/mL/mg, the “AUC∞, dose normalized” value [1, 4] was 479 kg·ng·h/mL/mg and the “AUClast, dose normalized” value [1, 5] was 16.18 kg·ng·h/mL/mg. For the same compound, the “AUC∞, dose normalized” value [1, 5] was 587 kg·ng·h/mL/mg, the “AUClast, dose normalized” value [1, 6] was 2.50 kg·ng·h/mL/mg and the “AUC∞, dose normalized” value [1, 6] was 331 kg·ng·h/mL/mg. The half-life ([1]; female, mouse, IP 20 mg/kg, blood) was 3.53 h, the half-life ([1]; female, mouse, IP 40 mg/kg, blood) was 5.18 h and the half-life ([1]; female, mouse, IV 20 mg/kg, blood) was 3.31 h. It also gave a GRA [2, 7] of 39.3±9.8%, an MON [2, 7] of 17.8±2.8% and an HGB [2, 7] of 12.3 ± 0.7 g/dL. For the same compound, the WBC [2, 7] was 14.9±4.7 103/μL, the MPV [2, 7] was 5.0±0.2 μm3 and the RBC [2, 7] was 7.1±0.4 106/μL. The RDW [2, 7] was 13.1±0.4%, the MCH [2, 7] was 17.3 ± 0.3 pg and the MCHC [2, 7] was 32.4 ± 0.3 g/dL. It also gave an HCT [2, 7] of 38.0±2.3%, an MCV [2, 7] of 53.3±0.5 and an LYMP ([2]; 20 mg/kg IP daily 14 days, mean) of 42.9%. The MON [2, 8] was 15.4±3.8%, the HGB [2, 8] was 13.5 ± 0.5 g/dL and the WBC [2, 8] was 10.5±5.0 103/μL. The MPV [2, 8] was 5.1±0.2 μm3, the RBC [2, 8] was 7.9±0.2 106/μL and the RDW [2, 8] was 12.9±0.1%. It also gave an MCH [2, 8] of 17.2 ± 0.4 pg, an MCHC [2, 8] of 32.4 ± 0.6 g/dL and an HCT [2, 8] of 41.7±0.9%. The MCV [2, 8] was 52.8±1.0, the GRA [2, 9] was 43.1% and the LYMP [2, 9] was 41.6%. For the same compound, the Blood morphology parameters ([2]; doses as in Table S3) was “within the norm”, the “Induction of MDR1 in standard K562 cells” value (K562 cells) was “not able to induce MDR1; also recorded: unable to induce MDR1 expression” and the IC50 [3] was 1500 nM.
